# Test system: not listed separately
# Assay: Selectivity index, ratio of Ki for inhibition of recombinant human MAO-A to Ki for inhibition of recombinant human MAO-B using p-tyramine as substrate
row,SMILES,Ratio Ki
1,Cc1ccc(C2=NN(C(=O)Cn3c(=O)oc4ccc(Cl)cc43)C(c3ccccc3)C2)cc1 (stereo unspecified),3.6 10^-4No_unit
2,COc1ccc(C2=NN(C(=O)Cn3c(=O)oc4ccc(C)cc43)C(c3ccccc3Cl)C2)cc1 (stereo unspecified),0.045
3,COc1ccc(C2=NN(C(=O)Cn3c(=O)oc4ccccc43)C(c3cccc(OC)c3OC)C2)cc1 (stereo unspecified),4.9 10^-4No_unit
4,Cc1ccc(C2=NN(C(=O)Cn3c(=O)oc4ccccc43)C(c3ccccc3)C2)cc1 (stereo unspecified),0.003
5,COc1ccc(C2=NN(C(=O)Cn3c(=O)oc4ccccc43)C(c3ccccc3)C2)cc1 (stereo unspecified),0.001
6,COc1cccc(C2CC(c3ccc(C)cc3)=NN2C(=O)Cn2c(=O)oc3ccc(C)cc32)c1OC (stereo unspecified),0.005
7,Cc1ccc(C2CC(c3ccccc3)=NN2C(=O)Cn2c(=O)oc3ccccc32)cc1 (stereo unspecified),0.000446
8,COc1ccccc1C1=NN(C(=O)Cn2c(=O)oc3ccc(C)cc32)C(c2ccccc2Cl)C1 (stereo unspecified),0.019
9,COc1ccccc1C(/C=C/c1ccccc1Cl)=N/NC(=O)Cn1c(=O)oc2ccccc21,6.66 10^-5No_unit
10,COc1cccc(/C=C/C(=N\NC(=O)Cn2c(=O)oc3ccccc32)c2ccccc2)c1,1.12 10^-4No_unit
11,COc1cccc(C2CC(c3ccc(C)cc3)=NN2C(=O)Cn2c(=O)oc3ccc(Cl)cc32)c1OC (stereo unspecified),0.006
12,Cc1ccc(C2CC(c3ccccc3)=NN2C(=O)Cn2c(=O)oc3ccc(Cl)cc32)cc1 (stereo unspecified),0.005
13,COc1ccc(C2CC(c3ccccc3)=NN2C(=O)Cn2c(=O)oc3ccc(Cl)cc32)cc1OC (stereo unspecified),0.06
14,Cc1ccc(C2=NN(C(=O)Cn3c(=O)oc4ccc(C)cc43)C(c3ccccc3)C2)cc1 (stereo unspecified),0.002
15,COc1cccc(C2=NN(C(=O)Cn3c(=O)oc4ccc(Cl)cc43)C(c3ccccc3Cl)C2)c1 (stereo unspecified),0.05
16,COc1ccccc1C1=NN(C(=O)Cn2c(=O)oc3ccc(Cl)cc32)C(c2ccccc2Cl)C1 (stereo unspecified),0.005

# Target: T1, Amine oxidase [flavin-containing] A (Homo sapiens, UniProt P21397)
# T1 sequence (P21397 whole entry): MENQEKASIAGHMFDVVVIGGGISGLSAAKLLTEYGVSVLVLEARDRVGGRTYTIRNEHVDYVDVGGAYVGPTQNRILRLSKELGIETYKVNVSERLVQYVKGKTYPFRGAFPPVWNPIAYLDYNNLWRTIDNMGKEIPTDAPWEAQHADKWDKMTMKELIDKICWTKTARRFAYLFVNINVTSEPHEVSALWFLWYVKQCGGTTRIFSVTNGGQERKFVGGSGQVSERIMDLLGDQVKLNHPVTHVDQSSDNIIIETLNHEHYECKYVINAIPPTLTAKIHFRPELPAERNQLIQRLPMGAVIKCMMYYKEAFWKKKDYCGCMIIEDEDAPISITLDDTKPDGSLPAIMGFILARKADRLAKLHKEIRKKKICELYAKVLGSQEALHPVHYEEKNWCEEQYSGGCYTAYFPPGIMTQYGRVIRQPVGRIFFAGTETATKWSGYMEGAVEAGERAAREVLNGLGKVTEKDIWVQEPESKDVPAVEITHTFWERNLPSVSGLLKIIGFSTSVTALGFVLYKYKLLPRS
# Assay: Inhibition of recombinant human MAO-A expressed in baculovirus infected BTI insect cells using p-tyramine as substrate incubated for 30 mins by Amplex red reagent based fluorescence analysis
row,SMILES,Ki [nM]
1,Cc1ccc(C2=NN(C(=O)Cn3c(=O)oc4ccc(Cl)cc43)C(c3ccccc3)C2)cc1 (stereo unspecified),20
2,COc1ccc(C2=NN(C(=O)Cn3c(=O)oc4ccc(C)cc43)C(c3ccccc3Cl)C2)cc1 (stereo unspecified),18
3,COc1ccc(C2=NN(C(=O)Cn3c(=O)oc4ccccc43)C(c3cccc(OC)c3OC)C2)cc1 (stereo unspecified),125
4,Cc1ccc(C2=NN(C(=O)Cn3c(=O)oc4ccccc43)C(c3ccccc3)C2)cc1 (stereo unspecified),19
5,COc1ccc(C2=NN(C(=O)Cn3c(=O)oc4ccccc43)C(c3ccccc3)C2)cc1 (stereo unspecified),11
6,COc1cccc(C2CC(c3ccc(C)cc3)=NN2C(=O)Cn2c(=O)oc3ccc(C)cc32)c1OC (stereo unspecified),266
7,Cc1ccc(C2CC(c3ccccc3)=NN2C(=O)Cn2c(=O)oc3ccccc32)cc1 (stereo unspecified),4
8,COc1ccccc1C1=NN(C(=O)Cn2c(=O)oc3ccc(C)cc32)C(c2ccccc2Cl)C1 (stereo unspecified),308
9,COc1ccccc1C(/C=C/c1ccccc1Cl)=N/NC(=O)Cn1c(=O)oc2ccccc21,4
10,COc1cccc(/C=C/C(=N\NC(=O)Cn2c(=O)oc3ccccc32)c2ccccc2)c1,1
11,COc1cccc(C2CC(c3ccc(C)cc3)=NN2C(=O)Cn2c(=O)oc3ccc(Cl)cc32)c1OC (stereo unspecified),510
12,Cc1ccc(C2CC(c3ccccc3)=NN2C(=O)Cn2c(=O)oc3ccc(Cl)cc32)cc1 (stereo unspecified),40
13,COc1ccc(C2CC(c3ccccc3)=NN2C(=O)Cn2c(=O)oc3ccc(Cl)cc32)cc1OC (stereo unspecified),3000
14,Cc1ccc(C2=NN(C(=O)Cn3c(=O)oc4ccc(C)cc43)C(c3ccccc3)C2)cc1 (stereo unspecified),50
15,COc1cccc(C2=NN(C(=O)Cn3c(=O)oc4ccc(Cl)cc43)C(c3ccccc3Cl)C2)c1 (stereo unspecified),120
16,COc1ccccc1C1=NN(C(=O)Cn2c(=O)oc3ccc(Cl)cc32)C(c2ccccc2Cl)C1 (stereo unspecified),50

# Test system: not listed separately
# Assay: Permeability of compound in PBS/EtOH buffer (70:30) at 25 ug/ml incubated for 16 hrs by UV plate reader based PAMPA-BBB
row,SMILES,"Papp at 16 h, 25 ug/ml [×10⁻⁶ cm/s]"
1,NCCc1ccc(O)c(O)c1 [DOPAMINE],0.32
2,CCn1cc(C(=O)O)c(=O)c2cc(F)c(N3CCNC(C)C3)c(F)c21 (stereo unspecified) [LOMEFLOXACIN],0.99
3,C[C@]12CC[C@@H]3c4ccc(O)cc4CC[C@H]3[C@@H]1CC[C@@H]2O [ESTRADIOL],9.99

# Target: T2, Amine oxidase [flavin-containing] B (Homo sapiens, UniProt P27338)
# T2 sequence (P27338 whole entry): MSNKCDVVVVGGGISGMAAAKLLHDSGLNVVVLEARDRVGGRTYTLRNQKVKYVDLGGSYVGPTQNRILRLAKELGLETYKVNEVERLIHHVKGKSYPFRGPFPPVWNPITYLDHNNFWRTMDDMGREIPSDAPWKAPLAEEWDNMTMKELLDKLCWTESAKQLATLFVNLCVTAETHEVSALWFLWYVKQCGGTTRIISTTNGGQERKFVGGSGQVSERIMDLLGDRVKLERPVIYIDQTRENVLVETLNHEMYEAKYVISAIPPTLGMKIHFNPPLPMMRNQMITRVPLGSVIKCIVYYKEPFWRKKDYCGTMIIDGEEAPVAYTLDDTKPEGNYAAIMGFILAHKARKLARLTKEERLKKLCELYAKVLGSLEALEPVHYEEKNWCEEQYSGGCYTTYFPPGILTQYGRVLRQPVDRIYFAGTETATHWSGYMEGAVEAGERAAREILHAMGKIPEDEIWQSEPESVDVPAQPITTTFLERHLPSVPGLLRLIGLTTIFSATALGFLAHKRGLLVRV
# Assay: Inhibition of recombinant human MAO-B expressed in baculovirus infected BTI insect cells using p-tyramine as substrate incubated for 30 mins by Amplex red reagent based fluorescence analysis
# Assay type: cell-based
row,SMILES,Ki [nM]
1,Cc1ccc(C2=NN(C(=O)Cn3c(=O)oc4ccc(Cl)cc43)C(c3ccccc3)C2)cc1 (stereo unspecified),55600
2,COc1ccc(C2=NN(C(=O)Cn3c(=O)oc4ccc(C)cc43)C(c3ccccc3Cl)C2)cc1 (stereo unspecified),400
3,COc1ccc(C2=NN(C(=O)Cn3c(=O)oc4ccccc43)C(c3cccc(OC)c3OC)C2)cc1 (stereo unspecified),255000
4,Cc1ccc(C2=NN(C(=O)Cn3c(=O)oc4ccccc43)C(c3ccccc3)C2)cc1 (stereo unspecified),5550
5,COc1ccc(C2=NN(C(=O)Cn3c(=O)oc4ccccc43)C(c3ccccc3)C2)cc1 (stereo unspecified),9000
6,COc1cccc(C2CC(c3ccc(C)cc3)=NN2C(=O)Cn2c(=O)oc3ccc(C)cc32)c1OC (stereo unspecified),52000
7,Cc1ccc(C2CC(c3ccccc3)=NN2C(=O)Cn2c(=O)oc3ccccc32)cc1 (stereo unspecified),8950
8,COc1ccccc1C1=NN(C(=O)Cn2c(=O)oc3ccc(C)cc32)C(c2ccccc2Cl)C1 (stereo unspecified),15900
9,COc1ccccc1C(/C=C/c1ccccc1Cl)=N/NC(=O)Cn1c(=O)oc2ccccc21,60000
10,COc1cccc(/C=C/C(=N\NC(=O)Cn2c(=O)oc3ccccc32)c2ccccc2)c1,8900
11,COc1cccc(C2CC(c3ccc(C)cc3)=NN2C(=O)Cn2c(=O)oc3ccc(Cl)cc32)c1OC (stereo unspecified),91300
12,Cc1ccc(C2CC(c3ccccc3)=NN2C(=O)Cn2c(=O)oc3ccc(Cl)cc32)cc1 (stereo unspecified),8550
13,COc1ccc(C2CC(c3ccccc3)=NN2C(=O)Cn2c(=O)oc3ccc(Cl)cc32)cc1OC (stereo unspecified),50200
14,Cc1ccc(C2=NN(C(=O)Cn3c(=O)oc4ccc(C)cc43)C(c3ccccc3)C2)cc1 (stereo unspecified),29000
15,COc1cccc(C2=NN(C(=O)Cn3c(=O)oc4ccc(Cl)cc43)C(c3ccccc3Cl)C2)c1 (stereo unspecified),2550
16,COc1ccccc1C1=NN(C(=O)Cn2c(=O)oc3ccc(Cl)cc32)C(c2ccccc2Cl)C1 (stereo unspecified),11000
